# According to patent publication US20230399289A1, “ITACONIC ACID DERIVATIVES” (Sitryx Therapeutics Limited, priority 2020, published 2023):
# What was measured:
# [1] = Hepatocyte stability assay, mouse; assay type: in vitro ADME; details: cryopreserved hepatocytes, 10 μM compound, 0.5×10^6 cells/mL, 60 min, read-out: T½
# Text: (§1) Defrosted cryo-preserved hepatocytes (viability>70%) may be used to determine the metabolic stability of a compound via calculation of intrinsic clearance (Clint; a measure of the removal of a compound from the liver in the absence of blood flow and cell binding). Clearance data are particularly important for in vitro work as they can be used in combination with in vivo data to predict the half-life and oral bioavailability of a drug.
# (§2) The metabolic stability in hepatocytes assay involves a time-dependent reaction using both positive and negative controls. The cells were pre-incubated at 37° C. and spiked with test compound (and positive control); samples were taken at pre-determined time intervals and analysed to monitor the change in concentration of the initial drug compound over 60 minutes. A buffer incubation reaction (with no hepatocytes present) acted as a negative control and two cocktail solutions, containing compounds with known high and low clearance values (verapamil/7-hydroxycoumarin and propranolol/diltiazem), acted as positive controls. • 1. The assay was run with a cell concentration of 0.5×10^6 cells/mL in Leibovitz buffer. • 2. All compounds and controls were run in duplicate. • 3. Compound concentration was 10 μM. • 4. All compounds and controls were incubated with both cells and buffer to show turnover was due to hepatic metabolism. • 5. All wells on the incubation plate had 326.7 μL of either cells or buffer added. • 6. Prior to assay, cell and buffer-only incubation plates were preincubated for 10 mins at 37° C. • 7. The assay was initiated by adding compounds, 3.3 μL of 1 mM in 10% DMSO-90% Buffer; final DMSO concentration is 0.1%. • 8. Samples were taken at regular timepoints (0, 5, 10, 20, 40, 60 min) until 60 mins. • 9. Sample volume was 40 μL and was added to 160 μL of crash solvent (acetonitrile with internal standard) and stored on ice. • 10. At the end of the assay, the crash plates were centrifuged at 3500 rpm for 20 mins at 4° C. • 11. 80 μL of clear supernatant was removed and mixed with 80 μL of deionised water before being analysed by LC-MS/MS.
# (§3) Raw LC-MS/MS data was exported to, and analysed in, Microsoft Excel for determination of intrinsic clearance. The percentage remaining of a compound was monitored using the peak area of the initial concentration as 100%. Intrinsic clearance and half-life values were calculated using a graph of the natural log of percentage remaining versus the time of reaction in minutes. Half-life (min) and intrinsic clearance (Clint in μL min^−1 10^−6 cells) values were calculated using the gradient of the graph (the elimination rate constant, k) and Equations 1 and 2.
# hepatocytes [2] = experiment: Hepatocyte stability assay, mouse; assay type: in vitro ADME; details: 10 μM compound, 0.5×10^6 cells/mL, 60 min
# Text: as §1, §2, §3
# [3] = system: IL-6 cytokine output from THP-1 cells; experiment: THP-1 AlphaLISA IL-6 cytokine assay; assay type: cell-based; details: Homo sapiens, THP-1, differentiated THP-1 cells
# Method: (§4) Measuring Inhibitory Effects on IL-1β and IL-6 Cytokine Output from THP-1s
# (§5) The cytokine inhibition profiles of compounds of formula (I) were determined in a differentiated THP-1 cell assay. All assays were performed in RPMI-1640 growth medium (Gibco), supplemented with 10% fetal bovine serum (FBS; Gibco), 1% penicillin-streptomycin and 1% sodium pyruvate unless specified otherwise. The IL-1β and IL-6 cytokine inhibition assays were each run in a background of differentiated THP-1 cells as described below. All reagents described were from Sigma-Aldrich unless specified otherwise. Compounds were prepared as 10 mM DMSO stocks.
# (§6) THP-1 cells were expanded as a suspension up to 80% confluence in appropriate growth medium. Cells were harvested, suspended, and treated with an appropriate concentration of phorbol 12-myristate 13-acetate (PMA) over a 72 hr period (37° C./5% CO2).
# (§7) Following 72 hrs of THP-1 cell incubation, cellular medium was removed and replaced with fresh growth media containing 1% of FBS. Working concentrations of compounds were prepared separately in 10% FBS treated growth medium and pre-incubated with the cells for 30 minutes (37° C./5% CO2). Following the 30 minute compound pre-incubation, THP-1s were treated with an appropriate concentration of LPS and the THP-1s were subsequently incubated for a 24 hr period (37° C./5% CO2). An appropriate final concentration of Nigericin was then dispensed into the THP-1 plates and incubated for 1 hour (37° C./5% CO2) before THP-1 supernatants were harvested and collected in separate polypropylene 96-well holding plates.
# (§8) Reagents from each of the […] and IL-6 commercial kits (Perkin Elmer) were prepared and run according to the manufacturer's instructions. Subsequently, fluorescence signal detection in a microplate reader was measured (EnVision® Multilabel Reader, Perkin Elmer).
# (§9) Percentage inhibition was calculated per cytokine by normalising the sample data to the high and low controls used within each plate (+/−LPS respectively). Percentage inhibition was then plotted against compound concentration and the 50% inhibitory concentration (IC50) was determined from the resultant concentration-response curve.
# [4] = Hepatocyte stability assay, human; assay type: in vitro ADME; details: cryopreserved hepatocytes, 10 μM compound, 0.5×10^6 cells/mL, 60 min, read-out: T½
# Text: as §1, §2, §3
# hepatocytes [5] = experiment: Hepatocyte stability assay, human; assay type: in vitro ADME; details: 10 μM compound, 0.5×10^6 cells/mL, 60 min
# Text: as §1, §2, §3
# [6] = system: NRF2 (nuclear factor erythroid 2-related factor 2); experiment: NRF2 +/−GSH activation assay (DiscoverX PathHunter NRF2 translocation kit, U2OS cells); assay type: cell-based; details: Homo sapiens; for Emax: U2OS, normalised to dimethyl fumarate high control; for EC50: U2OS PathHunter cells, 6 hours
# [7] = system: IL-1β cytokine output from THP-1 cells; experiment: THP-1 AlphaLISA IL-1β cytokine assay; assay type: cell-based; details: Homo sapiens, THP-1, differentiated THP-1 cells
# Method: as §4, §5, §6, §7, §8, §9
# [8] = LPS 24 hr then Nigericin 1 hour
# [9] = +GSH, 30 minute compound-GSH pre-incubation
SMILES,half-life at 10 μM [1] [min],CIint (hepatocytes [2]) [μL min^−1 10^−6 cells],"IC50 [3, 8] [µM]",half-life at 10 μM [4] [min],CIint (hepatocytes [5]) [μL min^−1 10^−6 cells],Emax ([6]; +GSH) [%],Emax ([6]; −GSH) [%],"EC50 [6, 9] [µM]",EC50 ([6]; −GSH) [µM],"IC50 [7, 8] [µM]",IC50 ([3]; from repeated experiments) [µM],IC50 ([7]; from repeated experiments) [µM]
"C=C(CC(=O)OC1(c2cc(Cl)cc(Cl)c2)CCC1)C(=O)OCC(=O)O [Example 1, 2-((4-(1-(3,5-dichlorophenyl)cyclobutoxy)-2-methylene-4-oxobutanoyl)oxy)acetic acid]",24,52,4.6,116,13,259,375,11.1,7.7,9.4,–,–
"C=C(CC(=O)OC1(c2ccc(C(F)(F)F)cc2)CCC1)C(=O)OCC(=O)O [Example 2, 2-((2-methylene-4-oxo-4-(1-(4-(trifluoromethyl)phenyl)cyclobutoxy)butanoyl)oxy)acetic acid]",38,50,5.2,> 460,<3,167,217,21.6,15.4,7.7,7.7,9.1
"C=C(CC(=O)OC1(c2ccc(Br)cc2)CCC1)C(=O)OCC(=O)O [Example 3, 2-((4-(1-(4-bromophenyl)cyclobutoxy)-2-methylene-4-oxobutanoyl)oxy)acetic acid]",20,95,11.3,174,9,–,–,–,–,12.1,–,–
"C=C(CC(=O)OC1(c2ccc(Cl)cc2)CCC1)C(=O)OCC(=O)O [Example 4, 2-((4-(1-(4-chlorophenyl)cyclobutoxy)-2-methylene-4-oxobutanoyl)oxy)acetic acid]",28,69,6.9,189,8,171,192,28.9,19,12.4,–,–
"C=C(CC(=O)OC1(c2cc(Cl)ccc2Cl)CCC1)C(=O)OCC(=O)O [Example 5, 2-((4-(1-(2,5-dichlorophenyl)cyclobutoxy)-2-methylene-4-oxobutanoyl)oxy)acetic acid]",24,80,5.3,172,9,185,208,25.4,16,10.6,–,–
"C=C(CC(=O)OC1(c2ccc(OC(F)(F)F)cc2Cl)CCC1)C(=O)OCC(=O)O [Example 6, 2-((4-(1-(2-chloro-4-(trifluoromethoxy)phenyl)cyclobutoxy)-2-methylene-4-oxobutanoyl)oxy)acetic acid]",< 3,>460,–,85,18,187,219,15.4,11.9,12.7,–,–
"C=C(CC(=O)OC1(c2ccc(OC(F)(F)F)cc2)CCC1)C(=O)OCC(=O)O [Example 9, 2-((2-methylene-4-oxo-4-(1-(4-(trifluoromethoxy)phenyl)cyclobutoxy)butanoyl)oxy)acetic acid]",29,66,–,251,6,182,210,7.3,5.1,12.1,–,–
"C=C(CC(=O)OC1(c2ccc(Cl)cc2Cl)CCC1)C(=O)OCC(=O)O [Example 10, 2-((4-(1-(2,4-dichlorophenyl)cyclobutoxy)-2-methylene-4-oxobutanoyl)oxy)acetic acid]",8,187,–,107,14,175,236,11.6,8.3,11.3,–,–
"C=C(CC(=O)OC1(c2ccc(C(F)(F)F)cc2Cl)CCC1)C(=O)OCC(=O)O [Example 11, 2-((4-(1-(2-chloro-4-(trifluoromethyl)phenyl)cyclobutoxy)-2-methylene-4-oxobutanoyl)oxy)acetic acid]",15,100,–,152,10,160,214,5.1,3,9,–,–
"C=C(CC(=O)OC1(c2ccc(Br)cc2Cl)CCC1)C(=O)OCC(=O)O [Example 12, 2-((4-(1-(4-bromo-2-chlorophenyl)cyclobutoxy)-2-methylene-4-oxobutanoyl)oxy)acetic acid]",6,239,–,64,23,158,217,7.9,5.2,8.8,–,–
"C=C(CC(=O)OC1(c2ccc(C)c(Cl)c2)CCC1)C(=O)OCC(=O)O [Example 20, 2-((4-(1-(3-chloro-4-methylphenyl)cyclobutoxy)-2-methylene-4-oxobutanoyl)oxy)acetic acid]",26,77,–,84,15,–,–,–,–,8.7,–,–
"C=C(CC(=O)OC1(c2ccc(C(F)(F)F)cc2)CC1)C(=O)OCC(=O)O [Example 30, 2-((2-methylene-4-oxo-4-(1-(4-(trifluoromethyl)phenyl)cyclopropoxy)butanoyl)oxy)acetic acid]",39,33,> 100,86,16,–,–,–,–,16.7,–,–
"C=C(CC(=O)OC1(c2ccc(C(F)(F)F)cc2)COC1)C(=O)OCCC(=O)O [Example 32, 3-((2-methylene-4-oxo-4-((3-(4-(trifluoromethyl)phenyl)oxetan-3-yl)oxy)butanoyl)oxy)propanoic acid]",41,36,11.9,407,4,–,–,–,–,7.4,–,–
